According to US20230220105A1, “TUMOR ACTIVATED T CELL ENGAGERS AND METHODS OF USE THEREOF” (Janux Therapeutics, Inc., priority 2019, published 2023):

Key:
[1] = target: neutravidin alone (Gallus gallus, UniProt P02701); experiment: Phagemid ELISA, neutravidin background; type: binding; settings: clonal phage displaying the peptide; ELISA signal on neutravidin alone
Protocol: The next day the deep well plates were centrifuged to separate the soluble phagemid from the E. coli cells. The phagemid containing supernatants were then combined with PBS-Tween 20 (0.05%) + BSA (1%) blocking buffer and incubated in ELISA wells containing Neutravidin captured biotin-conjugated target or Neutravidin alone. After binding at 4 degrees the plates were washed, and specifically bound phage were detected by anti-m13 HRP conjugated antibodies using standard TMB-based chromogenic ELISA procedures. Daughter plates or individual wells were subjected to standard DNA sequencing for clonal peptide sequence identification.
The next day the deep well plates were centrifuged to separate the soluble phagemid from the E. coli cells. The phagemid containing supernatants were then combined with PBS-Tween 20 (0.05%) + BSA (1%) pH neutral blocking buffer and incubated in previously TCR coated and blocked wells. After binding at 4° C. the plates were washed and specifically bound phage were detected by anti-m13 HRP conjugated antibodies using standard TMB-based chromogenic ELISA procedures (FIG. 17B). Daughter plates or individual wells were subjected to standard DNA sequencing for peptide identification.

[2] = system: MAGE-A3 TCR (TCR-1); experiment: Kinetic binding of TCR to peptides (Octet BLI); settings: Table 3; Ala mutants of Peptide-5 and controls
Protocol: BLI based kinetic binding of TCR to peptides was measured using a ForteBio Octet RED96 instrument. Biotinylated peptides were first directly captured on streptavidin biosensors. Sensors were quenched using excess biocytin and then baselined in buffer. A dilution series of TCR was made and associated onto the peptide loaded biosensor. Association and dissociation signals were monitored in real-time. Signals were fit to a 1:1 binding model in order to derive binding constants, kon and koff, as well as KD.

[3] = system: TCR-1 binding to MAGE-A3 pMHC; experiment: Inhibition of kinetic binding of TCR to its cognate pMHC (BLI); settings: Table 3
Protocol: First, biotinylated pMHC was captured on streptavidin biosensors. Sensors were quenched using excess biocytin and then baselined in buffer. Inhibitory peptide was titrated in a two fold dilution series starting from 100 uM and pre-incubated with a constant concentration of 50 nM TCR. Peptide and TCR mixtures were then associated onto the pMHC loaded biosensor. Zero concentration of inhibitory peptide or zero concentration of TCR were used as controls. Association and dissociation signals were monitored in real-time. The maximal association signal was normalized from 100% (0 uM inhibitory peptide control) to 0% (0 nM TCR control) and plotted versus log-scale inhibitory peptide concentration.

[4] = target: TCR-1 binding to MAGE-A3 pMHC; experiment: Inhibition of equilibrium binding of TCR to its cognate pMHC (ELISA)
Protocol: Inhibition of TCR binding to its cognate pMHC was also measured in an ELISA format. Biotinylated pMHC was captured on neutravidin coated plates, quenched using excess biocytin, and washed. Inhibitory peptide was titrated in a half-log dilution series starting from 100 uM and pre-incubated with a constant concentration of 1 nM TCR. Inhibitory peptide and TCR mixtures were then incubated on the pMHC captured plates. A secondary HRP antibody conjugate that recognized the histag of the TCR was then used to detect the plate bound TCR. […] Dose dependent decrease of signal was indicative of peptides that compete for TCR binding to its cognate pMHC.

[5] = system: TCR-1; experiment: Inhibitory peptide specificity evaluation (BLI); type: binding; settings: 100 uM TCR on Peptide-5 saturated biosensor
Protocol: (§1) Potent inhibitory peptides were tested for TCR specific binding. […] This family of TCRs differ in sequence by point mutations in the CDR domains know to contribute to binding affinity and specificity for cognate MAGE-A3 pMHC. […] TCRs were associated at the extreme concentration of 100 uM onto the inhibitory peptide loaded biosensor. In parallel, 100 uM TCRs were associated on a blank control sensor to establish background signal related to non-specific binding of the TCRs. Association and dissociation signals were monitored in real-time.

[6] = system: TCR-2; experiment: Inhibitory peptide specificity evaluation (BLI); type: binding; settings: 100 uM TCR on Peptide-5 saturated biosensor
Protocol: as §1

[7] = system: TCR-3; experiment: Inhibitory peptide specificity evaluation (BLI); type: binding; settings: 100 uM TCR on Peptide-5 saturated biosensor
Protocol: as §1

[8] = system: TCR-4; experiment: Inhibitory peptide specificity evaluation (BLI); type: binding; settings: 100 uM TCR on Peptide-5 saturated biosensor
Protocol: as §1

Chain of neutravidin alone (P02701 25-152): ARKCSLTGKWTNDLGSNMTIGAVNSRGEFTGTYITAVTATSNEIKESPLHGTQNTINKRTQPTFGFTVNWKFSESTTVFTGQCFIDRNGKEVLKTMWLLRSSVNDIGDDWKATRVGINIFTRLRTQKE

Structure (SMILES)	Phage ELISA NAv bkgd [1]	Octet BLI Binds TCR [2]	Octet BLI Competes at 100 uM [3]	IC50 ([4]; Table 2, 1 nM TCR) [nM]	IC50 ([4]; Table 3) [nM]	binding of Peptide-5 to TCR-1 [5]	binding of Peptide-5 to TCR-2 [6]	binding of Peptide-5 to TCR-3 [7]	binding of Peptide-5 to TCR-4 [8]
CC(C)[C@H](NC(=O)[C@@H]1CSSC[C@H](NC(=O)CNC(=O)CNC(=O)CN)C(=O)N[C@@H](Cc2ccccc2)C(=O)N[C@@H](C(C)C)C(=O)N[C@@H](CO)C(=O)N2CCC[C@H]2C(=O)N[C@@H](C)C(=O)N[C@@H]([C@@H](C)O)C(=O)NCC(=O)N[C@@H](Cc2ccccc2)C(=O)N[C@@H]([C@@H](C)O)C(=O)N[C@@H](Cc2c[nH]c3ccccc23)C(=O)N1)C(=O)NCC(=O)NCC(=O)NCC(=O)NCC(=O)N[C@@H](CO)C(=O)NCCOCCOCCOCCOCCC(=O)N[C@@H](CCCCNC(=O)CCCC[C@@H]1SC[C@@H]2NC(=O)N[C@@H]21)C(N)=O [Peptide-17]	0.13								
CC(C)[C@H](NC(=O)CNC(=O)CN)C(=O)N[C@@H](CO)C(=O)N[C@H]1CSSC[C@@H](C(=O)N[C@@H](Cc2c[nH]c3ccccc23)C(=O)N[C@H](C(=O)NCC(=O)NCC(=O)NCC(=O)NCC(=O)N[C@@H](CO)C(=O)NCCOCCOCCOCCOCCC(=O)N[C@@H](CCCCNC(=O)CCCC[C@@H]2SC[C@@H]3NC(=O)N[C@@H]32)C(N)=O)[C@@H](C)O)NC(=O)[C@H](Cc2ccccc2)NC(=O)[C@H](C)NC(=O)[C@H](CCC(=O)O)NC(=O)[C@H](CC(=O)O)NC(=O)[C@H](Cc2ccc(O)cc2)NC(=O)[C@H](C(C)C)NC(=O)[C@H](CC(=O)O)NC(=O)[C@H](CCCCN)NC1=O [Peptide-5]		Yes	Yes	600	600	readily bound	signal was identical to that of background	signal was identical to that of background	signal was identical to that of background
